# Experimental data from publication PMC2967639 (Drug and alcohol dependence, 2010).
# Columns and labels:
# LPS-induced paw edema [1] = assay: LPS-induced paw edema model; format: in vivo, mouse; conditions: for LPS-induced paw edema (change in paw thickness of LPS-injected paw): i.p. 1 h before, 6 and 23 h after LPS, dose-response, measured 24 h, Figure 4A; for paw thickness of the LPS-injected paw, post hoc vs vehicle: 10, 30 and 100 mg/kg CBC, 10 and 30 mg/kg THC; for paw thickness of the saline-injected (contralateral) paw: data not shown; for effect of antagonist given alone on LPS paw edema: 3 mg/kg i.p. 30 min before each vehicle injection
# [2] = blood and brain tissue concentrations of THC and CBC by GC/MS; format: in vivo, mouse
# CB1 receptor = conditions: ref Booker et al., 2009; cited from earlier work
# male ICR mice = assay: mouse tetrad assay; format: in vivo
# [3] = ref Hunt et al., 1980; Widman et al., 1974; cited from earlier work
# LPS-induced paw edema [4] = conditions: ref Naidu et al., under review; cited from earlier work
# wild type mice = conditions: i.v., ref Smith et al., 1994; cited from earlier work
compound,measurement,setting,value
"CCCCCc1cc(O)c2c(c1)OC(C)(CCC=C(C)C)C=C2 (centres unmarked) [CBC, cannabichromene]",LPS-induced paw edema (change in paw thickness of LPS-injected paw),LPS-induced paw edema [1],dose-related decreases
same,"paw thickness of the LPS-injected paw, post hoc vs vehicle",LPS-induced paw edema [1]; i.p.,significant decreases
same,paw thickness of the saline-injected (contralateral) paw,LPS-induced paw edema [1]; i.p.,neither drug affected the paw thickness
same,effect of CBC on THC levels in brain,[2]; 30 or 100 mg/kg CBC i.v. with THC 0.3 mg/kg i.v.,significantly elevated
same,CBC levels in blood with increasing doses of CBC,"[2]; CBC 3-100 mg/kg i.v., with or without THC 0.3 mg/kg, 30 min, Figure 3C",significant increases
same,CBC levels in brain with increasing doses of CBC,"[2]; CBC 3-100 mg/kg i.v., with or without THC 0.3 mg/kg, 30 min, Figure 3D",significant increases
same,Ki,CB1 receptor,> 10 µM
same,potency in the tetrad relative to THC,male ICR mice; i.v.,substantially less potent than THC
"CCCCCc1cc(O)c2c(c1)OC(C)(C)[C@@H]1CCC(C)=C[C@@H]21 [THC, Δ^9-tetrahydrocannabinol]",LPS-induced paw edema (change in paw thickness of LPS-injected paw),LPS-induced paw edema [1],dose-related decreases
same,"paw thickness of the LPS-injected paw, post hoc vs vehicle",LPS-induced paw edema [1]; i.p.,significant decreases
same,paw thickness of the saline-injected (contralateral) paw,LPS-induced paw edema [1]; i.p.,neither drug affected the paw thickness
same,"ED50 (95% confidence intervals), LPS-induced paw edema","LPS-induced paw edema [1]; individual dose-response curves, i.p.",4.0 (2.7 to 5.9) mg/kg
same,effect of THC on CBC blood and brain levels,[2]; THC 0.3 mg/kg i.v. 10 min after CBC 3-100 mg/kg i.v.,no effects
same,THC in blood bound to plasma,[3],About 90%
same,THC in blood bound to red blood cells,[3],10%
same,plasma THC bound to lipoproteins,[3],95 – 99%
same,activity in the tetrad at threshold dose,male ICR mice; THC 0.3 mg/kg i.v.,inactive
NC(=O)c1cccc(-c2cccc(OC(=O)NC3CCCCC3)c2)c1 [URB597],effect on LPS induced paw edema,LPS-induced paw edema [4],ameliorated LPS induced paw edema
"Cc1c(C(=O)c2cccc3ccccc23)c2cccc3c2n1[C@H](CN1CCOCC1)CO3 [WIN55,212-2]",effect on LPS induced paw edema,LPS-induced paw edema [4],ameliorated LPS induced paw edema
CCCCC/C=C\C/C=C\C/C=C\C/C=C\CCCC(=O)NCCO [anandamide],"fold less potent in producing antinociception than hypomotility, catalepsy and hypothermia",wild type mice,3 – 4 fold
C[C@@H]1C[C@H]2[C@@H]3CCC4=CC(=O)C=C[C@]4(C)[C@@]3(F)[C@@H](O)C[C@]2(C)[C@@]1(O)C(=O)CO [dexamethasone],effect on LPS induced paw edema,LPS-induced paw edema [4],ameliorated LPS induced paw edema
Cc1c(C(=O)NN2CCCCC2)nn(-c2ccc(Cl)cc2Cl)c1-c1ccc(Cl)cc1 [rimonabant],effect of antagonist given alone on LPS paw edema,LPS-induced paw edema [1],Neither rimonabant nor SR144528 given alone affected LPS paw edema
same,antagonism of the anti-edematous effects of THC,"LPS-induced paw edema [1]; antagonist 3 mg/kg 30 min before each THC 10 mg/kg i.p. injection, Figure 4B",but not rimonabant
same,blockade of the tetrad effects of CBC,male ICR mice; rimonabant 3 mg/kg 10 min before CBC 100 mg/kg i.v.,failed to block the pharmacological effects of CBC
same,main effect of rimonabant on the four tetrad measures,"male ICR mice; rimonabant 3 mg/kg, 10 min before vehicle or CBC 100 mg/kg",no significant main effects
SR144528,effect of antagonist given alone on LPS paw edema,LPS-induced paw edema [1],Neither rimonabant nor SR144528 given alone affected LPS paw edema
